# Tests used:
# [1] = test system: sorbitol level in the sciatic nerves; test: Study in vivo: reduction of sorbitol accumulation in sciatic nerves of streptozotocin-diabetic rats; conditions: 10 mg/kg/d oral, 4, 30 and 52 h after streptozotocin (60 mg/kg i.v.); sciatic nerve sorbitol 18 h after last dose; diabetic male Wistar rats
# Protocol: 2) Study in Vivo: Reduction of Sorbitol Accumulation
# 200 to 250 g male Wistar rats are made diabetic by intravenous injection of streptozotocin (60 mg/kg). They then receive an oral treatment of the test products, in the form of a suspension, 4 hours, 30 hours and 52 hours after the injection of streptozotocin. Eighteen hours after the last oral treatment, the rats are stunned and decapitated and then their sciatic nerves are removed. After extraction, the sorbitol level in the nerves is measured according to the enzymatic method described by H. U. BERGMEYER (Methods of enzymatic analysis. H. U. BERGMEYER ed., Academic Press New York 3, p. 1323, 1974).
# The percentage protection is calculated for each product relative to the batch of diabetic animals taking into account the sorbitol level in the sciatic nerves of nondiabetic rats.
# aldose reductase = biological target: T1, aldose reductase (Rattus norvegicus, UniProt P07943); test: Study in vitro: inhibition of aldose reductase; type: biochemical; conditions: enzyme from male Wistar rat crystalline lenses; L-glyceraldehyde, NADPH disappearance at 340 nm
# T1 construct: The aldose reductase used is obtained from male Wistar rat crystalline lenses; from tissue; host or cells: male Wistar rat crystalline lenses
# Protocol: 1) Study in Vitro: Inhibition of Aldose Reductase
# The aldose reductase used is obtained from male Wistar rat crystalline lenses according to a modification of the method of S. HAYMAN et al. (Journal of Biological Chemistry 240, p., 877, 1965). The enzymatic extract is diluted in a phosphate buffer in the presence of NADPH and various concentrations of the test products. The reaction is initiated, with L-glyceraldehyde and the reaction rate is measured by monitoring the disappearance of NADPH by spectrophotometry at 340 nm. The reaction rate is calculated for each product concentration and then the concentration necessary for a 50% reduction in the reaction rate (IC50) is evaluated by linear interpolation.
Compound,melting point [°C],IC50 (aldose reductase) [nM],Protection against increase in sorbitol after administration 10 mg/kg/d (%) [1] [%]
N#Cc1ccccc1C(=O)C[N+](=O)[O-],147 to 149,,
O=C(C[N+](=O)[O-])c1ccccc1C(F)(F)F,55 to 57,,
CCOc1ccccc1C(=O)C[N+](=O)[O-],145 to 148,,
CC(C)Oc1ccccc1C(=O)C[N+](=O)[O-],78 to 80,,
"CCCCCC(=O)Nc1ccc(C(=O)C[N+](=O)[O-])c(Cl)c1 [Example 20, N-[3-chloro-4-nitromethylcarbonylphenyl]hexaneamide]",60 to 63,,
"CC(C(=O)Nc1ccc(C(=O)C[N+](=O)[O-])c(Cl)c1)c1ccccc1 (stereo not drawn) [Example 23, N-[3-Chloro-4-nitromethylcarbonylphenyl]-2-phenylpropaneamide]",136 to 137,7,40
"CC(=O)Nc1cccc(C(=O)C[N+](=O)[O-])c1Cl [Example 34, N-[2-Chloro-3-nitromethylcarbonylphenyl]acetamide]",140 to 142,,
"O=C(C[N+](=O)[O-])c1cc(NS(=O)(=O)c2ccccc2)ccc1Cl [Example 38, N-[4-Chloro-3-nitromethylcarbonylphenyl]benzenesulfonamide]",152 to 154,,
"Cc1ccccc1CC(=O)Nc1ccc(C(=O)C[N+](=O)[O-])c(C)c1 [Example 59, N-[3-Methyl-4-nitromethylcarbonylphenyl]-2-methylphenylacetamide]",,6,52
"Cc1ccccc1CC(=O)Nc1ccc(C(=O)C[N+](=O)[O-])cc1Br [Example 60, N-[2-Bromo-4-nitromethylcarbonylphenyl]-2-methylphenylacetamide]",125 to 127,,

# Further lines, with some results ahead:
melting point [°C],IC50 (aldose reductase) [nM],Compound,Protection against increase in sorbitol after administration 10 mg/kg/d (%) [1] [%]
62 to 63,,CCc1ccccc1C(=O)C[N+](=O)[O-],
,41,"O=C(C[N+](=O)[O-])c1ccccc1OC(F)(F)F [Example 1, Nitromethyl 2-Trifluoromethoxyphenyl Ketone]",70
121 to 124,7,"O=C(Cc1ccccc1)Nc1ccc(C(=O)C[N+](=O)[O-])c(Cl)c1 [Example 24, N-[3-Chloro-4-nitromethylcarbonylphenyl]phenylacetamide]",45
,7,"O=C(Cc1ccccc1Cl)Nc1ccc(C(=O)C[N+](=O)[O-])c(Cl)c1 [Example 28, 2-Chloro-N-[3-chloro-4-nitromethylcarbonylphenyl]phenylacetamide]",58
160 to 162,7,"O=C(Cc1ccccc1C(F)(F)F)Nc1ccc(C(=O)C[N+](=O)[O-])c(Cl)c1 [Example 30, N-[3-Chloro-4-nitromethylcarbonylphenyl]-2-trifluoromethylphenylacetamide]",61
,7,"Cc1ccccc1CC(=O)Nc1ccc(C(=O)C[N+](=O)[O-])c(Cl)c1 [Example 43, N-[3-Chloro-4-nitromethylcarbonylphenyl]-2-methylphenylacetamide]",70
77 to 78,,"O=C(C[N+](=O)[O-])c1ccc(Sc2ccccc2)cc1Cl [Example 64, Nitromethyl 2-Chloro-4-phenylthiophenyl Ketone]",
